Where a name gives a salt, the structure may show the parent alone.
What was measured:
[1] = molecular target: hA2A receptor (Homo sapiens (Human), UniProt P29274); experiment: A2A FRET-based binding assay; settings: HEK GFP-A2A stable cell line, dyed CGS15943-derived probe
Protocol: Assay protocol: Compounds were evaluated on an in-vitro binding assay developed based on the technology described in the patent WO 98/55873. This assay was developed from hA2A receptor that was fused at its amino terminal domain to Green Fluorescent Protein (GFP) and stably expressed in HEK cells. The probe used is a dyed ligand derived from the non-selective CGS15943. For the FRET-binding experiment, HEK GFP-A2A stable cell line was seeded onto poly-D-lysine precoated black-walled 96-well plates in normal growth media (0.7 10^5 cells per well). After 24 hours of culture at 37° C., the cell media was removed and cells were washed. The tested compounds were applied on cells by the FLIPR^TETRA® (Molecular Devices®) and incubated for 10 minutes prior to addition of the dyed probe. When a drug interacts with the receptor, the FRET signal measured by the variation of GFP fluorescence at 510 nm is disrupted. The time curves of ligand binding were recorded during 1000 seconds. (excitation Light Emitting Diode 470-495 nm, emission 510+/−10 nm). The percentage of inhibition allows the evaluation of the inhibitory activity of compounds in comparison to the antagonist A2A reference CGS15943. The dose-inhibition curves were fitted with variable slope, using GraphPad® Prism software, in order to determine […] and Ki values. The dose-inhibition experiments were all performed in duplicate, three times independently.

[2] = molecular target: human A2A receptor (Homo sapiens, UniProt P29274); experiment: A2A-antagonist Ca++ functional assay (CGS21680 at EC80); format: cell-based; settings: HEK cells expressing GFP-hA2A and Gα15, inhibition of CGS21680 (EC80)-induced Ca2+ increase
From the text: Assay protocol: HEK cells stably expressing the human A2A receptor fused at its amino terminal domain to GFP, and cultured in Modified Eagle's Medium supplemented with 10% FCS, were transiently transfected by electroporation with plasmid DNA encoding the promiscuous G protein Gα15 in order to deviate the natural coupling of the receptor from AMPc production to calcium (Ca^2+) release pathway (Brabet et al., Neuropharmacology 37:1043-1051, 1998). Receptor activity was detected by changes in intracellular Ca^2+, measured using the fluorescent Ca^2+ sensitive dye, Fluo4AM (Molecular Probes®).
Cells were plated after transfection onto polyornithine coated, clear bottom, black-walled, 96-well plates and cultured for 24 hours. The day of the test, cells were washed with freshly prepared buffer B (HBSS 1×, Hepes 20 mM, MgSO4.7H2O 1 mM, Na2CO3 3.3 mM, CaCl2-2H2O 1.3 mM, 0.5% BSA, Probenecid 2.5 mM) and loaded at 37° C. in 5% CO2 for 1.5 hours with buffer B containing 1 μM Fluo4AM and 0.1 mg/mL Pluronic Acid. Afterwards cells were washed twice with buffer B and 50 μL of this buffer were added to each well. The tested compounds were incubated […] before addition of CGS21680 (used as reference agonist) at a concentration leading to 80% of its maximal activity (EC80). Afterwards, the intracellular Ca^2+ measurements were performed on a 60s kinetic by detection of the fluorescence intensity (excitation 485 nm, emission 525 nm) using the fluorescence microplate reader FlexStation® (Molecular Devices®). All data reflect three independent experiments. Dose-response curves were fitted by using the sigmoidal dose-response (variable slope) analyze in GraphPad Prism® program (San Diego) and IC50 of antagonist compound was calculated. Dose-response experiments were all performed in triplicate, three times independently.

Chain of hA2A receptor (P29274 whole entry, the tested form may be a part): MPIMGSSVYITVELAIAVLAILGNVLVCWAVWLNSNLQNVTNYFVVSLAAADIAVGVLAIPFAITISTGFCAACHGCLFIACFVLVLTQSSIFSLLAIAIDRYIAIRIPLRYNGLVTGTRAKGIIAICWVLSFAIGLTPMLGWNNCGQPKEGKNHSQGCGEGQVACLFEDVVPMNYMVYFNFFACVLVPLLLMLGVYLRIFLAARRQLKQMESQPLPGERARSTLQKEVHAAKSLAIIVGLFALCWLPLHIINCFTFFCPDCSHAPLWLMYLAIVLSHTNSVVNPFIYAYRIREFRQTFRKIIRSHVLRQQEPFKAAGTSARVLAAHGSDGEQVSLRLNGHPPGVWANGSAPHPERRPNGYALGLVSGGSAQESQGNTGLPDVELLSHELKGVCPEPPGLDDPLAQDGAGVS

Compound | melting point [°C] | Ki [1] [µM] | IC50 [2] [µM]
Cl.Cn1nc(-c2cnc3ccccn23)c2ccc(C(=O)N3CCCCCC3)cc21 | > 250 | – | –
Cn1nc(-c2cnc3ccc(F)cn23)c2ccc(C(=O)N3CCCCCCC3)cc21 [Example 97, Azocan-1-yl-[3-(6-fluoro-imidazo[1,2-a]pyridin-3-yl)-1-methyl-1H-indazol-6-yl]-methanone, chlorhydrate salt] | – | 0.003 ± 0.0004 | 0.021 ± 0.008
CN(C(=O)c1ccc2c(-c3cnc4ccc(F)cn34)nn(C)c2c1)c1ccccc1.Cl | > 250 | – | –
CCN(C(=O)c1ccc(C(=O)c2cnc3ccc(F)cn23)cc1Cl)C1CCCCC1 [Example 24, 2-Chloro-N-cyclohexyl-N-ethyl-4-(6-fluoro-imidazo[1,2-a]pyridine-3-carbonyl)-benzamide] | – | 0.034 ± 0.009 | –
Nc1nc(-c2cnc3ccc(F)cn23)c2ccc(C(=O)N3CCCCCC3)cc2n1 [Example 136, 2-Amino-7-(azepan-1-ylcarbonyl)-4-(6-fluoroimidazo[1,2-a]pyridin-3-yl)quinazoline, HCl salt] | – | 0.084 ± 0.011 | –
Cl.Cn1nc(-c2cnc3ccc(F)cn23)c2ccc(C(=O)N3CCCCCCCC3)cc21 (hydrate or solvate) | 240 to 245 | – | –
O=C(c1ccc(C(=O)N(C2CCCCC2)C2CCCCC2)cc1)c1cnc2ccccn12 [Example 48, N,N-Dicyclohexyl-4-(imidazo[1,2-a]pyridine-3-carbonyl)-benzamide] | – | 0.138 ± 0.115 | 0.945 ± 0.419
CN1CCN(C(=O)n2nc(-c3cnc4ccc(F)cn34)c3ccc(C(=O)N4CCCCCC4)cc32)CC1.Cl [Example 111, Azepan-1-yl-[3-(6-fluoro-imidazo[1,2-a]pyridin-3-yl)-1-[(4-methylpiperazin-1-yl)carbonyl]-1H-indazol-6-yl]-methanone, HCl salt] | 193 to 199 | 0.291 ± 0.03 | –
Cl.O=C(c1ccc2c(-c3cnc4ccc(F)cn34)nn(CCN3CCOCC3)c2c1)N1CCCCCC1 | 230 to 245 | – | –
N#Cc1ccc2ncc(C(=O)c3ccc(C(=O)N4CCCCCC4)cc3F)n2c1 [Example 73, 3-[4-(Azepan-1-ylcarbonyl)-2-fluorobenzoyl]imidazo[1,2-a]pyridine-6-carbonitrile] | 128 to 130 | – | –
Cl.N#Cc1ccc2ncc(-c3noc4cc(C(=O)N5CCCCCC5)ccc34)n2c1 | 234 to 235 | – | –
CCN(C(=O)c1ccc(C(=O)c2cnc3ccc(C#N)cn23)cc1)C1CCCCC1 [Example 7, 4-(6-Cyano-imidazo[1,2-a]pyridine-3-carbonyl)-N-cyclohexyl-N-ethyl-benzamide] | – | 0.171 ± 0.104 | –
Cl.Cn1nc(-c2cnc3ccc(F)cn23)c2ccc(C(=O)N(CC3CC3)C3CCCCC3)cc21 | 235 to 245 | – | –
CCN(C(=O)c1ccc(C(=O)c2cnc3ccccn23)nc1)C1CCCCC1 [Example 23, N-Cyclohexyl-N-ethyl-6-(imidazo[1,2-a]pyridine-3-carbonyl)-nicotinamide] | – | 0.264 ± 0.141 | 0.403 ± 0.163
CCc1ccc2ncc(-c3nn(C)c4cc(C(=O)N5CCCCCC5)ccc34)n2c1.Cl | > 250 | – | –
Cn1nc(-c2cnc3ccc(F)cn23)c2ccc(C(=O)N3CCCCCC3)cc21 [Example 79, Azepan-1-yl-[3-(6-fluoro-imidazo[1,2-a]pyridin-3-yl)-1-methyl-1H-indazol-6-yl]-methanone] | – | 0.004 ± 0.001 | 0.015 ± 0.004
Cl.Cn1nc(-c2cnc3ccc(F)cn23)c2ccc(C(=O)N3CCCCC3)cc21 (hydrate or solvate) | > 250 | – | –
CCN(C(=O)c1ccc2c(-c3cnc4ccc(F)cn34)nn(C)c2c1)C(C)C.Cl | > 250 | – | –
O=C(c1ccc2c(-c3cnc4ccc(F)cn34)c[nH]c2c1)N1CCCCCC1 [Example 134, 3-[6-(Azepan-1-ylcarbonyl)-1H-indol-3-yl]-6-fluoroimidazo[1,2-a]pyridine] | – | 0.348 ± 0.095 | –

Compound | melting point [°C] | Ki [1] [µM] | IC50 [2] [µM]
CCN(C(=O)c1ccc2c(-c3cnc4ccc(F)cn34)noc2c1)C(C)C.Cl | 219 to 225 | – | –
Cl.Cn1nc(-c2cnc3ccc(C4CC4)cn23)c2ccc(C(=O)N3CCCCCC3)cc21 | > 250 | – | –
Cc1ccc2ncc(-c3nn(C)c4cc(C(=O)N5CCCCCC5)ccc34)n2c1.Cl | > 250 | – | –
Cl.Cn1nc(-c2cnc3ccc(F)cn23)c2ccc(C(=O)N3CCCCCCC3)cc21 (hydrate or solvate) [Example 97, Azocan-1-yl-[3-(6-fluoro-imidazo[1,2-a]pyridin-3-yl)-1-methyl-1H-indazol-6-yl]-methanone, chlorhydrate salt] | 241 to 249 | – | –
COC[C@H]1CCCN1C(=O)c1ccc2c(-c3cnc4ccc(C#N)cn34)nn(C)c2c1.Cl (hydrate or solvate) [Example 101, 3-(1-Methyl-6-{[(2R)-2-(methoxymethyl)pyrrolidin-1-yl]carbonyl}-1H-indazol-3-yl)imidazo[1,2-a]pyridine-6-carbonitrile, chlorhydrate salt] | 230 to 235 | – | –
Cl.O=C(c1ccc2c(-c3cnc4ccc(F)cn34)noc2c1)N1CCCCC1 | 203 to 205 | – | –
Cl.Cn1nc(-c2cnc3ccc(C(F)(F)F)cn23)c2ccc(C(=O)N3CCCCCC3)cc21 [Example 85, [6-(Azepan-1-ylcarbonyl)]-1-methyl-3[6-(trifluoromethyl)-imidazo[1,2-a]pyridin-3-yl]-1H-indazole, HCl salt] | 202 to 204 | 0.177 ± 0.005 | –
CCN(C(=O)c1ccc(C(=O)c2cnc3ccccn23)cc1)c1ccccc1 [Example 56, N-Ethyl-4-(imidazo[1,2-a]pyridine-3-carbonyl)-N-phenyl-benzamide] | 141 to 145 | 0.188 ± 0.063 | –
N#Cc1ccc2ncc(-c3noc4cc(C(=O)N5CCOCC5)ccc34)n2c1 [Example 125, 3-[6-(Morpholin-4-ylcarbonyl)-1,2-benzisoxazol-3-yl]imidazo[1,2-a]pyridine-6-carbonitrile, HCl salt] | – | 0.147 ± 0.054 | –
CN(C(=O)c1ccc(C(=O)c2cnc3ccc(F)cn23)cc1)c1ccccc1 [Example 50, 4-(6-Fluoro-imidazo[1,2-a]pyridine-3-carbonyl)-N-methyl-N-phenyl-benzamide] | 131 to 135 | – | –
COCCOCCn1nc(-c2cnc3ccc(F)cn23)c2ccc(C(=O)N3CCCCCC3)cc21.Cl | 159 to 165 | – | –
CCN(C(=O)c1ccc(C(=O)c2cnc3ccc(Br)cn23)cc1)C1CCCCC1 [Example 10, 4-(6-Bromo-imidazo[1,2-a]pyridine-3-carbonyl)-N-cyclohexyl-N-ethyl-benzamide] | – | 0.108 ± 0.074 | 0.891 ± 0.571
CCN(C(=O)c1ccc(C(=O)c2cnc3ccc(Cl)nn23)cc1)C1CCCCC1 [Example 139, N-Cyclohexyl-N-ethyl-4-(6-chloroimidazo[1,2-b]pyridazin-3-ylcarbonyl)-benzamide] | – | 0.459 ± 0.27 | –
Cl.Cn1nc(-c2cnc3ccc(F)cn23)c2ccc(C(=O)N3CCCC4CCCCC43)cc21 (stereo not drawn) | 248 to 249 | – | –
Cl.Cn1nc(-c2cnc3ccc(C#N)cn23)c2ccc(C(=O)N3CCCCCC3)cc21 | > 250 | – | –
COC[C@H]1CCCN1C(=O)c1ccc2c(-c3cnc4ccc(C#N)cn34)nn(C)c2c1 [Example 101, 3-(1-Methyl-6-{[(2R)-2-(methoxymethyl)pyrrolidin-1-yl]carbonyl}-1H-indazol-3-yl)imidazo[1,2-a]pyridine-6-carbonitrile, chlorhydrate salt] | – | 0.003 | 0.012 ± 0.004
Cl.Cn1nc(-c2cnc3ccc(C#N)cn23)c2ccc(C(=O)N3CCCCC3)cc21 (hydrate or solvate) | > 250 | – | –
Cl.O=C(c1ccc2c(-c3cnc4ccc(F)cn34)nn(Cc3ccccc3)c2c1)N1CCCCCC1 [Example 107, Azepan-1-yl-[1-benzyl-3-(6-fluoro-imidazo[1,2-a]pyridin-3-yl)-1H-indazol-6-yl]-methanone, HCl salt] | 134 to 135 | 0.034 ± 0.005 | –
Cl.O=C(c1ccc2c(-c3cnc4ccc(F)cn34)nn(CCc3ccccc3)c2c1)N1CCCCCC1 | 139 to 140 | – | –

Reference: US9029393B2, “Adenosine receptor ligands and uses thereof” (Kaldi Pharma, SAS, priority 2009, dated 2015)
